Legend:
[1] = system: Jurkat (T-lymphoblastic leukemia) cells; assay: cells; type: cell-based; details: Homo sapiens, Jurkat, mean ± SE, at least three experiments in duplicate; viable cells; read-out: IC50 Jurkat
Method: (§1) Cells (Jurkat, K562, U937, HeLa, HEK293 and normal Fibroblasts) were purchased from Russian Cell Culture Collection (Institute of Cytology of the Russian Academy of Sciences, Saint Petersburg, Russia) and cultured according to standard mammalian tissue culture protocols and sterile technique. Human cell lines HEK293 and HeLa were obtained from the HPA Culture Collections (Salisbury, UK). All cell lines used in the study were tested and shown to be free of mycoplasma and viral contamination.
(§2) Cells were maintained in RPMI 1640 (Jurkat, K562, U937) (Gibco, Thermo Fisher Scientific, Waltham, MA, USA) supplemented with 4 mM glutamine, 10% FBS (Sigma, Burlington, MA, USA) and 100 units/mL penicillin-streptomycin (Sigma). All types of cells were grown in an atmosphere of 5% CO2 at 37 °C. The cells were subcultures at 2–3 days intervals. Adherent cells (HEK293, HeLa, fibroblasts) were suspended using trypsin/EDTA and counted after they have reached 80% confluency. Cells were then seeded in 24 well plates at 5 × 10^4 cells per well and incubated overnight. Jurkat, K562, U937 cells were subcultured at 2 day intervals with a seeding density of 1 × 10^5 cells per 24 well plates in RPMI with 10% FBS.
(§3) Viability (Live/dead) assessment was performed by staining cells with 7-AAD (7-Aminoactinomycin D) (Biolegend, San Diego, CA, USA). Cells were treated of test compounds with six different concentrations (1, 5, 10, 15, 30 and 60 μM). After treatment, cells were harvested, washed 1–2 times with phosphate-buffered saline (PBS) and centrifuged at 400× g for 5 min. Cell pellets were resuspended in 200 μL of flow cytometry staining buffer (PBS without Ca^2+ and Mg^2+, 2.5% FBS) and stained with 5 μL of 7-AAD staining solutionfor 15 min at room temperature in the dark. Samples were acquired on NovoCyteTM 2000 FlowCytometry System (ACEA, San Diego, CA, USA) equipped with 488 nm argon laser. Detection of 7-AAD emission was collected through a 675/30 nm filter in FL4 channel.

[2] = system: K562 (chronic myeloid leukemia) cells; assay: Cytotoxicity assay (7-AAD viability, flow cytometry), K562; type: cell-based, human; details: Homo sapiens, K562, mean ± SE, at least three experiments in duplicate; viable cells; read-out: IC50 K562
Method: as §1, §2, §3

[3] = system: U937 (histiocytic lymphoma) cells; assay: Cytotoxicity assay (7-AAD viability, flow cytometry), U937; type: cell-based, human; details: Homo sapiens, U-937, mean ± SE, at least three experiments in duplicate; viable cells; read-out: IC50 U937
Method: as §1, §2, §3

[4] = system: HEK293 (embryonic kidney) cells; assay: Cytotoxicity assay (7-AAD viability, flow cytometry), HEK293; type: cell-based, human; details: Homo sapiens, HEK293, mean ± SE, at least three experiments in duplicate; viable cells
Method: as §1
(§4) HEK293, HeLa cell lines and fibroblasts were cultured as monolayers and maintained in Dulbecco’s modified Eagle’s medium (DMEM, Gibco BRL, Waltham, MA, USA) supplemented with 10% foetal bovine serum and 1% penicillin-streptomycin solution at 37 °C in a humidified incubator under a 5% CO2 atmosphere.
as §2, §3

[5] = system: HeLa (cervical cancer) cells; assay: Cytotoxicity assay (7-AAD viability, flow cytometry), HeLa; type: cell-based, human; details: Homo sapiens, HeLa, mean ± SE, at least three experiments in duplicate; viable cells
Method: as §1, §4, §2, §3

normal human fibroblasts = assay: Cytotoxicity assay (7-AAD viability, flow cytometry), normal fibroblasts; type: cell-based; details: Homo sapiens, Fibroblast, mean ± SE, at least three experiments in duplicate
Method: as §1, §4, §2
as §3, with “Cells were treated of test compounds with six different concentrations (1, 5, 10, 15, 30 and 60 μM).” left out

Structure (SMILES): CC(=O)O[C@H]1CC[C@@]2(C)C(CC[C@]3(C)C2CCC2C4C(C(C)C)CC[C@]4(C(=O)NCCN)CC[C@]23C)C1(C)C (stereo partly drawn) [Compound 5, 3β-N-(2-Aminoethyl)-3-O-acetyl-lupane-28-amide]
- IC50 [1]: 2.3 ± 0.11 µM
- IC50 [2]: 2.8 ± 0.23 µM
- IC50 [3]: 1.9 ± 0.34 µM
- IC50 [4]: 4.8 ± 0.25 µM
- IC50 [5]: 3.9 ± 0.41 µM
- IC50 (normal human fibroblasts): 5.3 ± 0.27 µM
- melting point: 120 to 122 °C

Structure (SMILES): CC(=O)O[C@H]1CC[C@@]2(C)C(CC[C@]3(C)C2CCC2C4C(C(C)C)CC[C@]4(C(=O)NCCCCN)CC[C@]23C)C1(C)C (stereo partly drawn) [Compound 6, 3β-N-(4-Aminobuthyl)-3-O-acetyl-lupane-28-amide]
- IC50 [1]: 7.7 ± 0.31 µM
- IC50 [2]: 1.8 ± 0.12 µM
- IC50 [3]: 4.5 ± 0.43 µM
- IC50 [4]: 6.7 ± 0.21 µM
- IC50 [5]: 7.1 ± 0.18 µM
- IC50 (normal human fibroblasts): 8.3 ± 0.29 µM
- melting point: 104 to 106 °C

Structure (SMILES): CC(=O)O[C@H]1CC[C@@]2(C)C(CC[C@]3(C)C2CCC2C4C(C(C)C)CC[C@]4(C(=O)NCCCN4CCN(CCCN)CC4)CC[C@]23C)C1(C)C (stereo partly drawn) [Compound 8a, 3β-N-{[3-(3-Aminopropyl)piperazinyl]propyl}-3-O-acetyl-lupane-28-amide]
- IC50 [1]: 4.5 ± 0.29 µM
- IC50 [2]: 3 ± 0.19 µM
- IC50 [3]: 8.2 ± 0.13 µM
- IC50 [4]: 5.9 ± 0.14 µM
- IC50 [5]: 6.1 ± 0.38 µM
- IC50 (normal human fibroblasts): 7.3 ± 0.43 µM
- melting point: 119 to 121 °C
